Results on 20 compounds are retold here after patent publication US9371286B2, “Pharmaceutical composition with enhanced efficacy for inhibiting angiogenesis” (INDUSTRY-ACADEMIC COOPERATION FOUNDATION, YONSEI UNIVERSITY, priority 2011, dated 2016).

The IC50 is the midpoint of a concentration-inhibition curve.

The structures appear in SMILES notation.

Data set [1] has as its system HIF-1α. The experiment in a line: HIF-1α stability analysis (western blot, hypoxia). Format: cell-based. Particulars: HepG2 cells pretreated 30 minutes, then 1% O2 for 4 hours; for IC50: HIF-1α protein level by western blot, read-out: IC50 values of respective compounds on HIF-1 α; for hypoxia-induced HIF-1α protein accumulation: western blot. On the procedure:
HepG2 cells were pretreated with indicated concentrations of the synthetic derivatives for 30 minutes and then exposed to 1% O2 for 4 hours. HIF-1α and tubulin protein levels were analyzed using western blot analysis.
For orientation: Immunoblotting shows a protein as a band on a membrane.

The test system of data set [2] is HUVECs. The data set is described as follows: Viability of endothelial cells. Format: cell-based, human.
The target in data set [3] is T1, UQCRB (Homo sapiens, UniProt P14927).
T1 sequence (P14927 1-111): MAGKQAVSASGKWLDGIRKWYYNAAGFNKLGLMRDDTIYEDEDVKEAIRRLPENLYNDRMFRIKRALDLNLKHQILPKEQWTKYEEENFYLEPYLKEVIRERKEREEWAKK
The experiment in a line: Surface plasmon resonance (BIAcore) competitive binding analysis. Particulars: for binding efficiency of UQCRB to biotinylated terpestacin (BT) after co-incubation: competitor 25 μM incubated with purified UQCRB protein 25 μM, BIAcore 2000; for direct binding to UQCRB: concluded from SPR competition with biotinylated terpestacin. On the procedure: SPR analysis was performed to analyze the binding of the compounds to UQCRB. Control biotin and biotinylated terpestacin (BT) were sequentially immobilized onto the surface of a streptavidin-coated sensor chip and the apparent binding affinities were calculated by subtraction of resonance values of UQCRB binding to control biotin from those of UQCRB binding to BT. For competitive binding analysis, the compounds were each incubated with the UQCRB protein, and then the complexes were injected into flow cells of the sensor chip.
In order to further investigate the binding of A1893 and A1938 to UQCRB, the present inventors performed SPR (BIAcore) analysis. Control biotin and biotinylated terpestacin were sequentially immobilized onto the surface of a streptavidin-coated sensor chip. Competitive binding molecules (A1893 and A1938, 25 μM) were incubated with the purified UQCRB protein (25 μM) in the buffer (10 mM HEPES, 150 mM NaCl, 3 mM EDTA (pH 7.4)), and then UQCRB-competitive binding molecule complexes were injected onto the sensor chip at a flow rate of 30 μl/min. The surface of the sensor chip was regenerated by the injection of 5 μl of the regeneration buffer (50 mM NaOH). Molecular interaction analysis was performed using the BIAcore 2000 system (BIAcore AB), and the apparent binding affinities were calculated by the subtraction of resonance values of UQCRB binding to control biotin from those of UQCRB binding to biotinylated terpestacin. For competitive binding analysis, terpestacin and the compounds of the present invention were each incubated with the UQCRB protein, and then the complexes were injected into flow cells of the sensor chip.

Data set [4] has as its system HUVECs. The data set is described as follows: Tube formation analysis on Matrigel. The data set is classed as cell-based, human. Particulars: VEGF 30 ng/ml, 2.5 μM and 5 μM, 8 hours. Here is the method:
(§1) Serum-starved HUVECs were treated with VEGF (30 ng/mL) with or without A1893 or A1938 and then the in vitro angiogenesis analysis was performed.
Tube formation analysis was performed using HUVECs growing on Matrigel (Collaborative Biomedical Products). The 48-well plate was coated with 150 μl Matrigel, followed by polymerization at 37 for 2 hours. Then, human umbilical vein endothelial cells (HUVECs, 1×10^5 cells/well) were inoculated on Matrigel, and then VEGF (30 ng/ml) and the compound of the present invention DPCN (2.5 μM and 5 μM) were added thereto. The morphological change of cells was observed while the cells were incubated at room temperature for 8 hours. Tube formation was quantified by measuring the number of connected cells in randomly selected fields and dividing the measured number by the total number of cells in the same field.

Data set [5] has as its system HepG2 cells. The data set is described as follows: Mitochondrial ROS generation analysis (DCF fluorescence). Format: cell-based. Particulars: HepG2 cells pretreated 30 minutes, then 1% O2 for 10 minutes. Here is the method:
Intracellular ROS levels were determined by the DCF fluorescence. HepG2 cells were pretreated with the compounds for 30 minutes, and then exposed to 1% O2 for 10 minutes. A1893 and A1938 suppressed hypoxia-induced mitochondrial ROS generation, which confirmed that A1893 and A1938 modulate the O2 sensing function of UQCRB.
The increase in ROS generation due to complex III during hypoxia triggers HIF-1α stabilization, and consequently mediates the expression of its target genes such as VEGF. UQCRB, which is an important component in mitochondrial complex III, acts as an O2 sensor and mediates hypoxia-induced tumor angiogenesis. In order to determine whether anti-angiogenic activity of A1893 and A1938 is associated with the modulation of the O2 sensing function of UQCRB, the present inventors investigated the mitochondrial ROS-mediated hypoxic signal transmission procedure of A1893 and A1938. HepG2 liver cancer cells were pretreated with A1893 and A1938 for 30 minutes, and then exposed to 1% O2 for 10 minutes. Intracellular ROS levels were determined by the DCF fluorescence. A1893 and A1938 suppressed the hypoxia-induced mitochondrial ROS generation in HepG2 cells in a dose-dependent manner (FIG. 5).

In data set [6] the test system is HUVECs. The experiment in a line: Invasiveness analysis (Transwell, VEGF-induced). The data set is classed as cell-based, human. Particulars: VEGF 30 ng/ml, 2.5 μM and 5 μM, 18 hours. On the procedure:
as §1
Serum-starved human umbilical vein endothelial cells (HUVECs) were treated with VEGF with or without A1893 or A1938, and then the in vitro angiogenesis analysis was performed. The invasiveness of HUVECs was investigated using the Transwell chamber system with 8.0-μm pore-sized polycarbonate filter (Corning Costar). First, a lower portion of the filter was coated with 10 μl gelatin (10 mg/ml) for 1 hour, and an upper portion of the filter was coated with 10 μl Matrigel (3 mg/ml) for 2 hours. Then, 600 μl of the EBM-2 medium was put into the Transwell, and then, VEGF (30 ng/ml) and the compound of the present invention DPCN (2.5 μM and 5 μM) were added thereto. The coated filter was placed on the Transwell, and HUVECs (1×10^5 cells/well) were inoculated on the upper portion of the filter, following by incubation for 18 hours. After that, the cells were fixed with 70% methanol, and then stained with hematoxylin/eosin. Then, the total number of invaded cells was measured using an optical microscope at 100× magnification.

The mark [7] stands for this setting: stated with the invasion analysis.
Where [8] appears, read: stated with the tube formation analysis.

As to `CC(C)(C)c1ccc(S(=O)(=O)Nc2ccc(O)cc2F)cc1` [A2007, 4-tert-butyl-N-(2-fluoro-4-hydroxy-phenyl)-benzene-sulfonamide], the IC50 in data set [1] was 10 µM. For `CC(C)(C)c1ccc(S(=O)(=O)Nc2ccc(O)cc2Cl)cc1` [A2000, 4-tert-butyl-N-(2-chloro-4-hydroxy-phenyl)-benzene-sulfonamide], in data set [1], the IC50 came out at 10 µM. `O=S(=O)(Nc1ccc(O)cc1)c1ccc(-c2ccccc2)cc1` [A1938, biphenyl-4-sulfonic acid (4-hydroxy-phenyl)-amide]: the “viability of endothelial cells” value in data set [2] (setting [7]) is given as “without affecting viability”. In addition, the “viability of endothelial cells” value in data set [2] (setting [8]) is on record as “without affecting viability”. In addition, in data set [3], the “binding efficiency of UQCRB to biotinylated terpestacin (BT) after co-incubation” value (“binding efficiency of UQCRB” for short) is on record as “significantly decreased” and the “direct binding to UQCRB” value was “directly bind to UQCRB”. Also, the “tube formation of HUVECs” value in data set [4] is on record as “inhibited the tube formation”. Moreover, the “hypoxia-induced mitochondrial ROS generation” value in data set [5] was “suppressed”. In data set [1], the IC50 was 5 µM and the “hypoxia-induced HIF-1α protein accumulation” value is recorded as “greatly reduced”. Besides, the “VEGF-induced invasion of HUVECs” value in data set [6] is listed as “inhibited VEGF-induced invasion”. For `O=S(=O)(NC1CCC(CCO)CC1)c1ccc2ccccc2c1` (stereo not drawn) [A2069, naphthalene-2-sulfonic acid [4-(2-hydroxy-ethyl)-cyclohenxyl]-amide], the IC50 in data set [1] was found to be 10 µM. For `CC(C)(C)c1ccc(S(=O)(=O)Nc2ccc(O)cc2[N+](=O)[O-])cc1` [A2037, 4-tert-butyl-N-(2-nitro-4-hydroxy-phenyl)-benzene-sulfonamide], in data set [1], the 50% inhibitory concentration (IC50) is 10 µM.

With `O=S(=O)(Nc1cc(Cl)c(O)c(Cl)c1)c1ccc2ccccc2c1` [A2044, naphthalene-3-sulfonic acid (3,5-dichloro-4-hydroxy-phenyl)-amide], in data set [1], the IC50 was 10 µM. Turning to `CC(C)(C)c1ccc(S(=O)(=O)Nc2ccc(O)cc2)cc1` [A1893, 4-tert-butyl-N-(4-hydroxy-phenyl)-benzene-sulfonamide], in data set [2] (setting [7]), the “viability of endothelial cells” value is on record as “without affecting viability”. Moreover, in data set [2] (setting [8]), the “viability of endothelial cells” value was “without affecting viability”. Moreover, in data set [3], the “binding efficiency of UQCRB” value is recorded as “significantly decreased” and the “direct binding to UQCRB” value is reported as “directly bind to UQCRB”. For the same compound, the “tube formation of HUVECs” value in data set [4] is listed as “inhibited the tube formation”. The “hypoxia-induced mitochondrial ROS generation” value in data set [5] was “suppressed”. Moreover, in data set [1], the IC50 stood at 5 µM and the “hypoxia-induced HIF-1α protein accumulation” value is “greatly reduced”. Besides, the “VEGF-induced invasion of HUVECs” value in data set [6] is on record as “inhibited VEGF-induced invasion”. With `O=S(=O)(Nc1cccc(O)c1)c1ccc(-c2ccccc2)cc1` [A2033, biphenyl-4-sulfonic acid (3-hydroxy-phenyl)-amide], in data set [1], the IC50 stood at 5 µM. On the same count and under the same terms, next, `CC(C)(C)c1ccc(S(=O)(=O)Nc2ccc(O)c(Cl)c2)cc1` [A2003, 4-tert-butyl-N-(3-chloro-4-hydroxy-phenyl)-benznene-sulfonamide]: 10 µM; `O=[N+]([O-])c1cc(O)ccc1NS(=O)(=O)c1ccc(-c2ccccc2)cc1` [A2038, biphenyl-4-sulfonic acid (2-nitro-4-hydroxy-phenyl)-benzene-sulfonamide]: 5 µM. Regarding `CCc1ccc(S(=O)(=O)Nc2cccc3ccc(O)cc23)cc1` [A1891, 4-ethyl-N-(7-hydroxy-naphthalen-1-yl)-benzene-sulfonamide], the IC50 in data set [1] was 10 µM. Same read-out and setting: then `Cc1cc(NS(=O)(=O)c2ccc(-c3ccccc3)cc2)ccc1O` [A2040, biphenyl-4-sulfonic acid (4-hydroxy-3-methyl-phenyl)-amide], with 5 µM. Turning to `O=S(=O)(Nc1cc(Cl)c(O)c(Cl)c1)c1ccc(-c2ccccc2)cc1` [A2043, biphenyl-4-sulfonic acid (3,5-dichloro-4-hydroxy-phenyl)-amide], the IC50 in data set [1] worked out at 10 µM. Same read-out and setting: then `O=S(=O)(Nc1ccc(O)cc1Cl)c1ccc(-c2ccccc2)cc1` [A2001, biphenyl-4-sulfonic acid (2-chloro-4-hydroxy-phenyl)-amide], with 5 µM; and `O=S(=O)(NCCc1ccc(O)cc1)c1ccc(-c2ccccc2)cc1` [A2060, biphenyl-4-sulfonic acid [2-(4-hydroxy-phenyl)-ethyl]-amide], with 10 µM. As to `C/C1=C\C[C@]2(C)C(=O)C(O)=C([C@H](C)CO)[C@H]2C/C=C(\C)[C@@H](O)CC/C(C)=C/CC1` [terpestacin, reference compound], the “binding efficiency of UQCRB” value in data set [3] is on record as “significantly decreased”.

Turning to `Cc1cc(NS(=O)(=O)c2ccc(-c3ccccc3)cc2)ccc1O` [A2041, biphenyl-4-sulfonic acid (4-hydrox-3-methyl-phenyl)-amide], the concentration for half-maximal inhibition (IC50) in data set [1] came to 10 µM. As for `CC(C)(C)c1ccc(S(=O)(=O)Nc2ccc(O)c(F)c2)cc1` [A2010, 4-tert-butyl-N-(3-fluoro-4-hydroxy-phenyl)-benzene-sulfonamide], the IC50 in data set [1] amounted to 10 µM.

As for `CC(C)(C)c1ccc(S(=O)(=O)Nc2cc(Cl)c(O)c(Cl)c2)cc1` [A2006, 4-tert-butyl-N-(3,5-dichloro-4-hydroxy-phenyl)-benzene-sulfonamide], the 50% inhibitory concentration (IC50) in data set [1] was determined as 10 µM. In the case of `O=S(=O)(Nc1ccc(O)cc1F)c1ccc(-c2ccccc2)cc1` [A2008, biphenyl-4-sulfonic acid (2-fluoro-4-hydroxy-phenyl)-amide], the IC50 in data set [1] was found to be 5 µM.
